# Source: US8765940B2 (priority 2009, dated 2014)
# Biological target: PI3Kδ (Homo sapiens (Human), UniProt O00329)
# Type: biochemical
# Details: PI3Kδ Alphascreen assay
# Method: A PI3K Alphascreen® assay (PerkinElmer, Waltham, Mass.) was used to measure the activity of a panel of four phosphoinositide 3-kinases: PI3Kα, PI3Kβ, PI3Kγ, and PI3Kδ. Enzyme reaction buffer was prepared using sterile water (Baxter, Deerfield, Ill.) and 50 mM Tris HCl pH 7, 14 mM MgCl2, 2 mM sodium cholate, and 100 mM NaCl. 2 mM DTT was added fresh the day of the experiment. The Alphascreen buffer was made using sterile water and 10 mM Tris HCl pH 7.5, 150 mM NaCl, 0.10% Tween 20, and 30 mM EDTA. 1 mM DTT was added fresh the day of the experiment. Compound source plates used for this assay were 384-well Greiner clear polypropylene plates containing test compounds at 5 mM and diluted 1:2 over 22 concentrations. Columns 23 and 24 contained only DMSO as these wells comprised the positive and negative controls, respectively. Source plates were replicated by transferring 0.5 uL per well into 384-well Optiplates (PerkinElmer, Waltham, Mass.).
# Each PI3K isoform was diluted in enzyme reaction buffer to 2× working stocks. PI3Kα was diluted to 1.6 nM, PI3Kβ was diluted to 0.8 nM, PI3Kγ was diluted to 15 nM, and PI3Kδ was diluted to 1.6 nM. PI(4,5)P2 (Echelon Biosciences, Salt Lake City, Utah) was diluted to 10 μM and ATP was diluted to 20 μM. This 2× stock was used in the assays for PI3Kα and PI3Kβ. For assay of PI3Kγ and PI3Kδ, PI(4,5)P2 was diluted to 10 μM and ATP was diluted to 8 μM to prepare a similar 2× working stock. Alphascreen reaction solutions were made using beads from the anti-GST Alphascreen kit (PerkinElmer, Waltham, Mass.). Two 4× working stocks of the Alphascreen reagents were made in Alphascreen reaction buffer. In one stock, biotinylated-IP4 (Echelon Biosciences, Salt Lake City, Utah) was diluted to 40 nM and streptavadin-donor beads were diluted to 80 μg/mL. In the second stock, PIP3-binding protein (Echelon Biosciences, Salt Lake City, Utah) was diluted to 40 nM and anti-GST-acceptor beads were diluted to 80 μg/mL.
# Using a 384-well Multidrop (Titertek, Huntsville, Ala.), 10 μL/well of 2× enzyme stock was added to columns 1-24 of the assay plates for each isoform. 10 μL/well of the appropriate substrate 2× stock (containing 20 μM ATP for the PI3Kα and β assays and containing 8 μM ATP for the PI3Kγ and δ assays) was then added to Columns 1-24 of all plates. Plates were then incubated at room temperature for 20 minutes. In the dark, 10 μL/well of the donor bead solution was added to columns 1-24 of the plates to quench the enzyme reaction. The plates were incubated at room temperature for 30 minutes. Still in the dark, 10 μL/well of the acceptor bead solution was added to columns 1-24 of the plates. The plates were then incubated in the dark for 1.5 hours. The plates were read on an Envision multimode Plate Reader (PerkinElmer, Waltham, Mass.) using a 680 nm excitation filter and a 520-620 nm emission filter.
# PI3Kδ, sequence (O00329 whole entry): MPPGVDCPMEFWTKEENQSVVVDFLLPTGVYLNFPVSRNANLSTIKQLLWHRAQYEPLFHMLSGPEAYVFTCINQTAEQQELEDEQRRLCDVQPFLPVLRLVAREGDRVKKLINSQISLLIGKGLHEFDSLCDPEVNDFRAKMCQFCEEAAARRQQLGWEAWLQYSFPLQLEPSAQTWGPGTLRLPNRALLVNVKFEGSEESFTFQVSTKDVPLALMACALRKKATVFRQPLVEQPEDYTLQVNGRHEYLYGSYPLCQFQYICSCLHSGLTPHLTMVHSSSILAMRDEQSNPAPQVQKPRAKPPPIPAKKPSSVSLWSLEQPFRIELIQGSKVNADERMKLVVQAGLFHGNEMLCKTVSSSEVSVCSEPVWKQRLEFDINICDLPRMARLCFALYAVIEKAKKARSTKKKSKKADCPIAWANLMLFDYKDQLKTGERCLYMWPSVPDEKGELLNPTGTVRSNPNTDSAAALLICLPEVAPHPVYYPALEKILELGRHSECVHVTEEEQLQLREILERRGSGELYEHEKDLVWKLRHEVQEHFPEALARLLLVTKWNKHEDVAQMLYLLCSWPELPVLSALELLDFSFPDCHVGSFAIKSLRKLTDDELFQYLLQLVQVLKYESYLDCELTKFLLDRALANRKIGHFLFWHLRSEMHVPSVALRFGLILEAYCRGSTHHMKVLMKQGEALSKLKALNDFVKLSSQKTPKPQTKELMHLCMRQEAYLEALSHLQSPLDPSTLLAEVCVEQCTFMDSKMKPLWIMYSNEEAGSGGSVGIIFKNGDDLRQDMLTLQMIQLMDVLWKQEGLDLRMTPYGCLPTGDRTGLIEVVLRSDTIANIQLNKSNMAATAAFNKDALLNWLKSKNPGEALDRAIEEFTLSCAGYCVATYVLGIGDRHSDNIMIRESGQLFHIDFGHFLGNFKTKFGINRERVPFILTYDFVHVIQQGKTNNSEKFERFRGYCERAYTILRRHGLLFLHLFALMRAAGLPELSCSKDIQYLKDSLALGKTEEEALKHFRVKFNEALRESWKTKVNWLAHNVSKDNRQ
# PI3Kδ, sequence (P27986 whole entry partner): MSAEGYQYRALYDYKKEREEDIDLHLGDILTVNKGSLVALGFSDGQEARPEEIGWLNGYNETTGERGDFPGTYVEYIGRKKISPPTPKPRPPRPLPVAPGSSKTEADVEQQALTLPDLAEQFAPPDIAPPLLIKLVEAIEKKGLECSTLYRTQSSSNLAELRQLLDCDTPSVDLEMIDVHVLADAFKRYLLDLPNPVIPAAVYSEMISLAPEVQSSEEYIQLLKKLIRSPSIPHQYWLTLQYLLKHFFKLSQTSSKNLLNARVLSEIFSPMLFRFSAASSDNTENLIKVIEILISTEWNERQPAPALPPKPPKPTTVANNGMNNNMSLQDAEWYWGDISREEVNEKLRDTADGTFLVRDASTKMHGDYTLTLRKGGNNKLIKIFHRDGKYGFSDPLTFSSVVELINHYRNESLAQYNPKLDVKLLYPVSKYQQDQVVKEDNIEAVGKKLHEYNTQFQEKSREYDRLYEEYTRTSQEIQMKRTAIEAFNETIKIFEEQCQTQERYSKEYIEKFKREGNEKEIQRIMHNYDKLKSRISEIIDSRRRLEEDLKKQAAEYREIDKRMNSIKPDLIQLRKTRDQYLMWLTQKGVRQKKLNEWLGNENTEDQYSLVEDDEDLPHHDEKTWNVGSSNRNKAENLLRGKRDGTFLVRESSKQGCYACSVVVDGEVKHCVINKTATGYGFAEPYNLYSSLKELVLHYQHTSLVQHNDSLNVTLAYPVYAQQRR
row,Structure (SMILES),Ki [nM]
1,"Cc1c(-c2cccc(F)c2)nc2ncccc2c1N1CC2(CCOCC2)c2ncc(N3CCOCC3)cc21 [1′-(2-(3-fluorophenyl)-3-methyl-1,8-naphthyridin-4-yl)-6′-(4-morpholinyl)-1′,2,2′,3,5,6-hexahydrospiro[pyran-4,3′-pyrrolo[3,2-b]pyridine]]",27.8
2,"Cc1c(-c2ccccn2)nc2cnccc2c1N1CC2(CCOCC2)c2ncc(N3CCOCC3)cc21 [1′-(3-methyl-2-(2-pyridinyl)-1,7-naphthyridin-4-yl)-6′-(4-morpholinyl)-1′,2,2′,3,5,6-hexahydrospiro[pyran-4,3′-pyrrolo[3,2-b]pyridine]]",30.7
3,"Cc1c(-c2ccccn2)nc2ncccc2c1N1CC2(CCOCC2)c2ncc(N3CCOCC3)cc21 [1′-(3-methyl-2-(2-pyridinyl)-1,8-naphthyridin-4-yl)-6′-(4-morpholinyl)-1′,2,2′,3,5,6-hexahydrospiro[pyran-4,3′-pyrrolo[3,2-b]pyridine]]",65.9
4,"Cc1c(-c2ccccc2)nc2ncccc2c1N1CC2(CCOCC2)c2ncc(N3CCOCC3)cc21 [1′-(3-methyl-2-phenyl-1,8-naphthyridin-4-yl)-6′-(4-morpholinyl)-1′,2,2′,3,5,6-hexahydrospiro[pyran-4,3′-pyrrolo[3,2-b]pyridine]]",22.6
5,"COc1cc(-c2nc3cc(F)cc(F)c3c(N3CC4(CCOCC4)c4ncc(N5CCOCC5)cc43)c2C)ccn1 [1′-(5,7-difluoro-2-(2-methoxy-4-pyridinyl)-3-methyl-4-quinolinyl)-6′-(4-morpholinyl)-1′,2,2′,3,5,6-hexahydrospiro[pyran-4,3′-pyrrolo[3,2-b]pyridine]]",6.89
6,"Cc1c(N2CCNCC2)nc2cc(F)cc(F)c2c1N1CC2(CCOCC2)c2ncc(N3CCOCC3)cc21 [1′-(5,7-difluoro-3-methyl-2-(1-piperazinyl)-4-quinolinyl)-6′-(4-morpholinyl)-1′,2,2′,3,5,6-hexahydrospiro[pyran-4,3′-pyrrolo[3,2-b]pyridine]]",1.37
7,"Cc1c(-c2ccccc2S(C)(=O)=O)nc2cc(F)cc(F)c2c1N1CC2(CCOCC2)c2ncc(N3CCOCC3)cc21 [1′-(5,7-difluoro-3-methyl-2-(2-(methylsulfonyl)phenyl)-4-quinolinyl)-6′-(4-morpholinyl)-1′,2,2′,3,5,6-hexahydrospiro[pyran-4,3′-pyrrolo[3,2-b]pyridine]]",4.51
8,"Cc1c(-c2ccccn2)nc2cc(F)cc(F)c2c1N1CC2(CCOCC2)c2ncc(N3CCOCC3)cc21 [1′-(5,7-difluoro-3-methyl-2-(2-pyridinyl)-4-quinolinyl)-6′-(4-morpholinyl)-1′,2,2′,3,5,6-hexahydrospiro[pyran-4,3′-pyrrolo[3,2-b]pyridine]]",9.44
9,"Cc1c(N2CCN(S(C)(=O)=O)CC2)nc2cc(F)cc(F)c2c1N1CC2(CCOCC2)c2ncc(N3CCOCC3)cc21 [1′-(5,7-difluoro-3-methyl-2-(4-(methylsulfonyl)-1-piperazinyl)-4-quinolinyl)-6′-(4-morpholinyl)-1′,2,2′,3,5,6-hexahydrospiro[pyran-4,3′-pyrrolo[3,2-b]pyridine]]",2.3
10,"Cc1ccc(S(C)(=O)=O)c(-c2nc3cc(F)cc(F)c3c(N3CC4(CCOCC4)c4ncc(N5CCOCC5)cc43)c2C)c1 [1′-(5,7-difluoro-3-methyl-2-(5-methyl-2-(methylsulfonyl)phenyl)-4-quinolinyl)-6′-(4-morpholinyl)-1′,2,2′,3,5,6-hexahydrospiro[pyran-4,3′-pyrrolo[3,2-b]pyridine]]",1.51
11,"Cc1c(-c2ccccn2)nc2cccc(F)c2c1N1CC2(CCOCC2)c2ncc(N3CCOCC3)cc21 [1′-(5-fluoro-3-methyl-2-(2-pyridinyl)-4-quinolinyl)-6′-(4-morpholinyl)-1′,2,2′,3,5,6-hexahydrospiro[pyran-4,3′-pyrrolo[3,2-b]pyridine]]",6.48
12,"Cc1c(-c2ccccn2)nc2cc(F)ccc2c1N1CC2(CCOCC2)c2ncc(-c3cn[nH]c3)cc21 [1′-(7-fluoro-3-methyl-2-(2-pyridinyl)-4-quinolinyl)-6′-(1H-pyrazol-4-yl)-1′,2,2′,3,5,6-hexahydrospiro[pyran-4,3′-pyrrolo[3,2-b]pyridine]]",320
13,"Cc1c(-c2ccccn2)nc2cc(F)ccc2c1N1CC2(CCOCC2)c2nc(N)c(N3CCOCC3)cc21 [1′-(7-fluoro-3-methyl-2-(2-pyridinyl)-4-quinolinyl)-6′-(4-morpholinyl)-1′,2,2′,3,5,6-hexahydrospiro[pyran-4,3′-pyrrolo[3,2-b]pyridin]-5′-amine]",29
14,"Cc1c(-c2ccccn2)nc2cc(F)ccc2c1N1CC2(CCOCC2)c2nc(C#N)c(N3CCOCC3)cc21 [1′-(7-fluoro-3-methyl-2-(2-pyridinyl)-4-quinolinyl)-6′-(4-morpholinyl)-1′,2,2′,3,5,6-hexahydrospiro[pyran-4,3′-pyrrolo[3,2-b]pyridine]-5′-carbonitrile]",219
15,"Cc1nc2c(Cl)cccc2c(N2CC3(CCOCC3)c3ncc(N4CCOCC4)cc32)c1C [1′-(8-chloro-2,3-dimethyl-4-quinolinyl)-6′-(4-morpholinyl)-1′,2,2′,3,5,6-hexahydrospiro[pyran-4,3′-pyrrolo[3,2-b]pyridine]]",2.68
16,"Cc1c(N2CCOC(C)(C)C2)nc2cc(F)cc(F)c2c1N1CC(C)(C)c2ncc(N3CCOCC3)cc21 [2-(2,2-dimethyl-4-morpholinyl)-4-(3,3-dimethyl-6-(4-morpholinyl)-2,3-dihydro-1H-pyrrolo[3,2-b]pyridin-1-yl)-5,7-difluoro-3-methylquinoline]",1.52
17,"Cc1c(-c2cc(F)ccc2F)nc2cc(F)ccc2c1N1CC(C)(C)c2ccc(N3CCOCC3)cc21 [2-(2,5-difluorophenyl)-4-(3,3-dimethyl-6-(4-morpholinyl)-2,3-dihydro-1H-indol-1-yl)-7-fluoro-3-methylquinoline]",20.3

# Other lines, results leading:
row,Ki [nM],Structure (SMILES)
1,3780,"Cc1c(-c2cc(C(F)(F)F)cc(C(F)(F)F)c2)nc2cccc(F)c2c1N1CC(C)(C)c2ccc(N3CCOCC3)cc21 [2-(3,5-bis(trifluoromethyl)phenyl)-4-(3,3-dimethyl-6-(4-morpholinyl)-2,3-dihydro-1H-indol-1-yl)-5-fluoro-3-methylquinoline]"
2,3080,"Cc1c(-c2cc(C(F)(F)F)cc(C(F)(F)F)c2)nc2cc(F)ccc2c1N1CC(C)(C)c2ccc(N3CCOCC3)cc21 [2-(3,5-bis(trifluoromethyl)phenyl)-4-(3,3-dimethyl-6-(4-morpholinyl)-2,3-dihydro-1H-indol-1-yl)-7-fluoro-3-methylquinoline]"
3,2.36,"Cc1c(-c2cc(F)cc(F)c2)nc2cnccc2c1N1CC(C)(C)c2ncc(N3CCOCC3)cc21 [2-(3,5-difluorophenyl)-4-(3,3-dimethyl-6-(4-morpholinyl)-2,3-dihydro-1H-pyrrolo[3,2-b]pyridin-1-yl)-3-methyl-1,7-naphthyridine]"
4,3.11,"Cc1c(-c2cc(F)cc(F)c2)nc2ncccc2c1N1CC(C)(C)c2ncc(N3CCOCC3)cc21 [2-(3,5-difluorophenyl)-4-(3,3-dimethyl-6-(4-morpholinyl)-2,3-dihydro-1H-pyrrolo[3,2-b]pyridin-1-yl)-3-methyl-1,8-naphthyridine]"
5,32,"Cc1c(C2CC2)nc2ncccc2c1N1CC(C)(C)c2ncc(N3CCOCC3)cc21 [2-cyclopropyl-4-(3,3-dimethyl-6-(4-morpholinyl)-2,3-dihydro-1H-pyrrolo[3,2-b]pyridin-1-yl)-3-methyl-1,8-naphthyridine]"
6,154,"Cc1c(-c2cccc(C#N)c2)nc2cc(F)ccc2c1N1CC(C)(C)c2ccc(N3CCOCC3)cc21 [3-(4-(3,3-dimethyl-6-(4-morpholinyl)-2,3-dihydro-1H-indol-1-yl)-7-fluoro-3-methyl-2-quinolinyl)benzonitrile]"
7,2.68,"Cc1c(Cc2cccc(C#N)c2)nc2cc(F)cc(F)c2c1N1CC(C)(C)c2ncc(N3CCOCC3)cc21 [3-((4-(3,3-dimethyl-6-(4-morpholinyl)-2,3-dihydro-1H-pyrrolo[3,2-b]pyridin-1-yl)-5,7-difluoro-3-methyl-2-quinolinyl)methyl)benzonitrile]"
8,449,"Cc1cc(-c2ccc3c(c2)N(c2c(C)c(-c4ccccn4)nc4cc(F)ccc24)CC3(C)C)nc(N)n1 [4-(1-(7-fluoro-3-methyl-2-(2-pyridinyl)-4-quinolinyl)-3,3-dimethyl-2,3-dihydro-1H-indol-6-yl)-6-methyl-2-pyrimidinamine]"
9,95.2,"Cc1c(-c2ccccn2)nc2cc(F)ccc2c1N1CC(C)(C)c2ncc(-c3cn[nH]c3)cc21 [4-(3,3-dimethyl-6-(1H-pyrazol-4-yl)-2,3-dihydro-1H-pyrrolo[3,2-b]pyridin-1-yl)-7-fluoro-3-methyl-2-(2-pyridinyl)quinoline]"
10,44,"Cc1nc2c(C)cccc2c(N2CC(C)(C)c3ccc(N4CCOCC4)cc32)c1C [4-(3,3-dimethyl-6-(4-morpholinyl)-2,3-dihydro-1H-indol-1-yl)-2,3,8-trimethylquinoline]"
11,516,"Cc1nc2c(C(F)(F)F)cccc2c(N2CC(C)(C)c3ccc(N4CCOCC4)cc32)c1C [4-(3,3-dimethyl-6-(4-morpholinyl)-2,3-dihydro-1H-indol-1-yl)-2,3-dimethyl-8-(trifluoromethyl)quinoline]"
12,362,"Cc1nc2ccccc2c(N2CC(C)(C)c3ccc(N4CCOCC4)cc32)c1C [4-(3,3-dimethyl-6-(4-morpholinyl)-2,3-dihydro-1H-indol-1-yl)-2,3-dimethylquinoline]"
13,47,"Cc1c(-c2ccccc2F)nc2ccccc2c1N1CC(C)(C)c2ccc(N3CCOCC3)cc21 [4-(3,3-dimethyl-6-(4-morpholinyl)-2,3-dihydro-1H-indol-1-yl)-2-(2-fluorophenyl)-3-methylquinoline]"
14,85.4,"Cc1c(-c2ccccc2)nc2ccccc2c1N1CC(C)(C)c2ccc(N3CCOCC3)cc21 [4-(3,3-dimethyl-6-(4-morpholinyl)-2,3-dihydro-1H-indol-1-yl)-3-methyl-2-phenylquinoline]"
15,654,"Cc1cnc2ccccc2c1N1CC(C)(C)c2ccc(N3CCOCC3)cc21 [4-(3,3-dimethyl-6-(4-morpholinyl)-2,3-dihydro-1H-indol-1-yl)-3-methylquinoline]"
16,73.7,"Cc1c(N2CCCCC2)nc2cc(F)cc(F)c2c1N1CC(C)(C)c2ccc(N3CCOCC3)cc21 [4-(3,3-dimethyl-6-(4-morpholinyl)-2,3-dihydro-1H-indol-1-yl)-5,7-difluoro-3-methyl-2-(1-piperidinyl)quinoline]"
